test system: plasma GH concentrations; experiment: Growth hormone releasing activity in the infant rat (plasma GH by RIA); assay type: in vivo, Sprague Dawley rats; details: Table 2 test series; male 10-day-old rats; 300 μg/kg subcutaneously; plasma 15 min later
Experimental: Male 10-day-old Sprague Dawley rats, about 25 g body weight were used.
One hour before the experiments, pups were separated from their respective dams and were divided randomly into groups of eight each.
Pups were acutely challenged subcutaneously with 100 μl of solvent (DMSO, final dilution 1:300 in physiological saline), hexarelin (Tyr-Ala-His-D-Mrp-Ala-Trp-D-Phe-Lys-NH2, used as a reference drug), or new compounds (300 μg/kg) and killed by decapitation 15 min later.
Trunk blood was collected and centrifuged immediately. Plasma samples were stored at −20° C. until assayed for the determination of plasma GH concentrations.
Growth hormone concentrations in plasma were measured by RIA using materials provided by the National Institute of Diabetes, Digestive and Kidney Diseases (NIDDK) of the National Institute of Health U.S.A.
Values were expressed in terms of the NIDDK-rat-GH-RP-2 standard (potency 21 U/mg) as ng/ml of plasma.
The minimum detectable value of rat GH was about 1.0 ng/ml, and intraassay variability was about 6%.

Compound | GH [ng/mL]
CNC(C)(C)C(=O)N[C@H](Cc1c[nH]c2ccccc12)C(=O)N[C@H](Cc1c[nH]c2ccccc12)NC(C)=O [Example 5, N-Me-Aib-D-Trp-D-gTrp-C(O)CH3] | 175.5 ± 37.2
CNC(C)(C)C(=O)NC(Cc1c[nH]c2ccccc12)C(=O)NC(Cc1c[nH]c2ccccc12)NC=O [Example 3, N-Me-Aib-D-Trp-D-gTrp-CHO] | 86.6 ± 12.6
CC(=O)NC(Cc1c[nH]c2ccccc12)NC(=O)C(Cc1c[nH]c2ccccc12)NC(=O)C(C)(C)N [Example 4, H-Aib-D-Trp-D-gTrp-C(O)CH3] | 104.7 ± 13.5

same assay, conditions: Table 3 test series; male 10-day-old rats; 300 μg/kg subcutaneously; plasma 15 min later

Compound | GH [ng/mL]
Pip-D-Trp-D-gTrp-CHO [Example 6] | 109.7 ± 10.1
CCC(=O)NC(Cc1c[nH]c2ccccc12)NC(=O)C(Cc1c[nH]c2ccccc12)NC(=O)C(C)(C)N [Example 19, Aib-D-Trp-gTrp-CO—CH2—CH3] | 79.8 ± 22.4
Pip-D-Trp-D-gTrp-C(O)CH3 [Example 7] | 53.1 ± 6.6

same assay, conditions: Table 4 test series; male 10-day-old rats; 300 μg/kg subcutaneously; plasma 15 min later

Compound | GH [ng/mL]
CNC(C)(C)C(=O)NC(Cc1c[nH]c2ccccc12)C(=O)NC(Cc1c[nH]c2ccccc12)NC(=O)C1CCNCC1 [Example 39, N-Me-Aib-D-Trp-D-gTrp-Isonipecotyl] | 97.1 ± 21.0
CNC(C)(C)C(=O)N[C@H](Cc1c[nH]c2ccccc12)C(=O)N(C)[C@H](Cc1c[nH]c2ccccc12)NC(C)=O [Example 40, N-Me-Aib-D-Trp-N-Me-D-gTrp-C(O)CH3] | 188.2 ± 28.5

same assay, conditions: Table 5 test series; male 10-day-old rats; 300 μg/kg subcutaneously; plasma 15 min later

Compound | GH [ng/mL]
CC(C)(N)C(=O)NC(Cc1cccc2ccccc12)C(=O)NC(Cc1cccc2ccccc12)NC=O (stereo not drawn) [Example 42, H-Aib-(D)-1-Nal-g-(D)-1-Nal-formyl] | 25.05 ± 06.00
CC(C)(N)C(=O)NC(Cc1ccc2ccccc2c1)C(=O)NC(Cc1c[nH]c2ccccc12)NC=O (stereo not drawn) [Example 45, H-Aib-(D)-2-Nal-(D)-gTrp-formyl] | 13.91 ± 03.87
H-Aib-(D)-1-Nal-(D)-gTrp-formyl [Example 44] | 15.04 ± 03.30
CC(C)(N)C(=O)N[C@H](Cc1c[nH]c2ccccc12)C(=O)NC(Cc1cccc2ccccc12)NC=O (stereo partly drawn) [Example 46, H-Aib-(D)-Trp-g-(D)-1-Nal-formyl] | 8.26 ± 01.09

same assay, conditions: Table 6 test series; male 10-day-old rats; 300 μg/kg subcutaneously; plasma 15 min later

Compound | GH [ng/mL]
CNC(C)(C)C(=O)NC(CC1CNc2ccccc21)C(=O)NC(Cc1c[nH]c2ccccc12)NC(C)=O (racemic) [Example 51, N(Me)-Aib-(D)-3(R/S)-Dht-(D)-gTrp-acetyl] | 19.38 ± 4.16
CNC(C)(C)C(=O)NC(Cc1c[nH]c2ccccc12)C(=O)NC(CC1CNc2ccccc21)NC(C)=O (racemic) [Example 50, N(Me)-Aib-(D)-Trp-(D)-3(R/S)-gDht-acetyl] | 11.17 ± 1.35
CC(C)(N)C(=O)NC(Cc1c[nH]c2ccccc12)C(=O)NC(CC1CNc2ccccc21)NC=O (racemic) [Example 48, H-Aib-(D)-Trp-(D)-3(R/S)-Dht-formyl] | 17.49 ± 2.40

same assay, conditions: Table 8 test series; male 10-day-old rats; 300 μg/kg subcutaneously; plasma 15 min later

Compound | GH [ng/mL]
CNC(C)(C)C(=O)NC(Cc1c[nH]c2ccccc12)C(=O)NC(C)(Cc1c[nH]c2ccccc12)NC(C)=O [Example 62, H-Me-Aib-(D)-Trp-(R)-Me-gTrp-acetyl] | 171.78 ± 10.32
CC(Cc1c[nH]c2ccccc12)(NC=O)NC(=O)C(Cc1c[nH]c2ccccc12)NC(=O)C(C)(C)N [Example 61, H-Aib-(D)-Trp-(R)-Me-gTrp-formyl] | 152.28 ± 43.76

same assay, conditions: Table 9 test series; male 10-day-old rats; 300 μg/kg subcutaneously; plasma 15 min later

Compound | GH [ng/mL]
NC1(C(=O)NC(Cc2c[nH]c3ccccc23)C(=O)NC(Cc2c[nH]c3ccccc23)NC=O)CCCC1 (stereo not drawn) [Example 55, H-Acc^5-(D)-Trp-(D)-gTrp-formyl] | 11.46 ± 1.18
NC1(C(=O)NC(Cc2c[nH]c3ccccc23)C(=O)NC(Cc2c[nH]c3ccccc23)NC=O)CCCCC1 (stereo not drawn) [Example 56, H-Acc^6-(D)-Trp-(D)-gTrp-formyl] | 8.49 ± 0.40
CCCC(N)(CCC)C(=O)NC(Cc1c[nH]c2ccccc12)C(=O)NC(Cc1c[nH]c2ccccc12)NC=O (stereo not drawn) [Example 57, H-Dpg-(D)-Trp-(D)-gTrp-formyl] | 18.38 ± 2.88
NC1(C(=O)NC(Cc2c[nH]c3ccccc23)C(=O)NC(Cc2c[nH]c3ccccc23)NC=O)CC1 (stereo not drawn) [Example 54, H-Acc^3-(D)-Trp-(D)-gTrp-formyl] | 7.89 ± 3.20

Source: US6861409B2, “Growth hormone secretagogues” (Zentaris AG, priority 2000, dated 2005)
